According to patent US20070249011A1, “Method for Screening Fungus-Specific Antimicrobial Agent and Kit Therefor” (priority 2004, published 2007):

Key:
Type in all cases: cell-based, Saccharomyces cerevisiae
ATCC201388 [pYES2-HIK1] = assay: Reagent sensitivity by liquid culture (doubling time), HIK1-expressing yeast; conditions: 25 ppm reagent, liquid culture in SG/-Ura (GAL1 expression-inducing conditions), 27° C., 160 rpm, average ± standard deviation
ATCC201388 [pYES2] = assay: Reagent sensitivity by liquid culture (doubling time), vector-only control yeast; conditions: 25 ppm reagent, liquid culture in SG/-Ura (GAL1 expression-inducing conditions), 27° C., 160 rpm, average ± standard deviation
pYES2-HIK1 transformant = assay: Reagent sensitivity by plate culture, HIK1-expressing yeast; conditions: for concentration at which the effect was saturated / growth inhibition in the presence of the reagent: SG plates; for concentration at which the effect was saturated: GAL1 expression-inducing conditions (FIG. 5B); for growth inhibition in the presence of the reagent: GAL1 expression-inducing conditions, 30° C., 60 hours, 5-100 ppm (FIG. 5B)
[1] = test system: strain introducing pYES2-hik1-H736V; assay: Reagent sensitivity by plate culture, yeast expressing Hik1-H736V (nonfunctional histidine kinase domain); conditions: 25 ppm fludioxonil, 25 ppm iprodione, 50 ppm chloroneb; SG plates, 30° C., 72 hours (FIG. 6B)
Protocol: (§1) The reagents were added to each SG medium so that 25 ppm fludioxonil, 25 ppm iprodione, 50 ppm chloroneb, and 0.5 M NaCl were contained in order from the second leftmost plate;
(§2) Reagent sensitivity was analyzed by plate culture and liquid culture. In the plate culture, strains were precultured overnight in 5 ml of SD/-Ura and then collected, followed by washing with 10 ml of SG/-Ura. The resulting strains were cultured for 8 hours to 10 hours in 10 ml of SG/-Ura, followed by OD600 measurement. They were diluted to 10^7 cells/ml, 10^6 cells/ml, 10^5 cells/ml, and 10^4 cells/ml, and 5 μl each thereof was added dropwise onto SG/-Ura plates supplemented with a variety of reagents, and cultured for 60 hours to 240 hours. In the liquid culture, strains were precultured overnight in 5 ml of SD/-Ura and then collected, followed by washing with 10 ml of SG/-Ura. The resulting strains were cultured for 8 hours to 10 hours in 10 ml of SG/-Ura, followed by OD600 measurement. They were added at OD600=0.01 to 300-ml Erlenmeyer flasks accommodating 50 ml of SG/-Ura containing a variety of reagents. After shaking by spinning at 160 rpm and 27° C., sampling was performed after 12, 15, 18, 21, 24, 33, 36, and 39 hours, followed by OD600 measurement. A growth curve was created to calculate a doubling time.
(§3) (2) Mutagenized HIK1 was prepared with Mutan-Express Km kit (TAKARA SHUZO) using synthetic DNAs for mutagenesis (HK-H736V: 5′-[…]-3′ (SEQ ID NO: 2) and HK-D1153E: 5′-[…]-3′ (SEQ ID NO: 3)). Each mutagenized HIK1 was cloned into the BamHI site of pYES2 to prepare pYES2-hik1-H736V and […]. […]

[2] = test system: ssk1 mutant strain introducing pYES2-HIK1; assay: Reagent sensitivity by plate culture, ssk1 mutant strain introducing pYES2-HIK1; conditions: 25 ppm fludioxonil, 25 ppm iprodione, 50 ppm chloroneb; SG plates, 30° C., 60 hours (FIG. 7A)
Description: (§4) A suspension of a control yeast cell introducing pYES2-HIK1 therein (uppermost rows), a suspension of a hog1 mutant strain cell introducing pYES2-HIK1 therein (second rows), a suspension of an ssk1 mutant strain cell introducing pYES2-HIK1 therein (third rows), a suspension of a ste11 mutant strain cell introducing pYES2-HIK1 therein (fourth rows), a suspension of a control yeast cell introducing pYES2 therein (fifth rows), a suspension of a hog1 mutant strain cell introducing pYES2-HIK1 therein (sixth rows), a suspension of an ssk1 mutant strain cell introducing pYES2-HIK1 therein (seventh rows), and a suspension of a ste11 mutant strain cell introducing pYES2-HIK1 therein (lowermost rows) were added (5 μl each) dropwise at 9 mm spacings (from the left, 10^7, 10^6, 10^5, and 10^4/ml) in order from the uppermost rows of plates of 90 mm in diameter containing a variety of reagents, followed by culture at 30° C. for 60 hours (or 96 hours for NaCl). […] A suspension of a hog1 mutant strain cell introducing pCLΔ-HOG1 and pYES2-HIK1 therein (uppermost rows), a suspension of a hog1 mutant strain cell introducing pCLΔ and pYES2-HIK1 therein (second rows), a suspension of an ssk1 mutant strain cell introducing pCLΔ-SSK1 and pYES2-HIK1 therein (third rows), and a suspension of an ssk1 mutant strain cell introducing pCLΔ and pYES2-HIK1 therein (lowermost rows) were added (5 μl each) dropwise at 9 mm spacings (from the left, 10 ^7, 10^6, 10^5, and 10^4/ ml) in order from the uppermost rows of plates of 90 mm in diameter containing a variety of reagents, followed by culture at 30° C. for 60 hours (or 96 hours for NaCl). The reagents were added to each SG medium so that 25 ppm fludioxonil, 25 ppm iprodione, 50 ppm chloroneb, and 0.5 M NaCl were contained in order from the second leftmost plate; and
(§5) Reagent sensitivity was analyzed by plate culture and liquid culture. In the plate culture, strains were precultured overnight in 5 ml of SD/-Ura and then collected, followed by washing with 10 ml of SG/-Ura. […]

[3] = test system: hog1 mutant strain introducing pYES2-HIK1; assay: Reagent sensitivity by plate culture, hog1 mutant strain introducing pYES2-HIK1; conditions: 25 ppm fludioxonil, 25 ppm iprodione, 50 ppm chloroneb; SG plates, 30° C., 60 hours (FIG. 7A)
Description: as §4, §5

[4] = test system: strain introducing pYES2-hik1-D1153E; assay: Reagent sensitivity by plate culture, yeast expressing Hik1-D1153E (nonfunctional response regulator domain); conditions: 25 ppm fludioxonil, 25 ppm iprodione, 50 ppm chloroneb; SG plates, 30° C., 72 hours (FIG. 6B)
Protocol: as §1, §2, §3

pYES2 transformant = assay: Reagent sensitivity by plate culture, vector-only control yeast
[5] = test system: ste11 mutant strain introducing pYES2-HIK1; assay: Reagent sensitivity by plate culture, ste11 mutant strain introducing pYES2-HIK1; conditions: 25 ppm fludioxonil, 25 ppm iprodione, 50 ppm chloroneb; SG plates, 30° C., 60 hours (FIG. 7A)
Description: as §4, §5

[6] = SG plates, GAL1 expression-inducing conditions, 30° C., 60 hours, 5-100 ppm (FIG. 5B)
[7] = all the strains (control, hog1, ssk1, ste11 mutant) introducing pYES2, 25 ppm fludioxonil, 25 ppm iprodione, 50 ppm chloroneb (FIG. 7A)

Which doubling time (ATCC201388 [pYES2-HIK1]) does the source give for COc1cc(Cl)c(OC)cc1Cl [Chloroneb, chloroneb] here?
The doubling time was 2.90 ± 0.11 h.

And the doubling time (ATCC201388 [pYES2-HIK1]; listed as chloroneb)?
The doubling time was 2.90 h.

What about the doubling time (ATCC201388 [pYES2]) of the same molecule?
The doubling time was 2.17 ± 0.08 h.

And the doubling time (ATCC201388 [pYES2]; listed as chloroneb)?
The doubling time was “around 2.2 hours”.

What about the “concentration at which the effect was saturated” value (pYES2-HIK1 transformant) of the same molecule?
Its value is 50 ppm.

What about the “growth inhibition in the presence of the reagent” value (pYES2-HIK1 transformant) of the same molecule?
Its value is “exhibited growth inhibition”.

What about the “sensitivity to the reagent” value [1] of the same molecule?
The value was “hardly exhibited sensitivity”.

What about the “sensitivity to the reagent” value [2] of the same molecule?
The value was “did not exhibit sensitivity”.

And the “sensitivity to the reagent” value [3]?
The value was “did not exhibit sensitivity”.

What about the “sensitivity to the reagent” value [4] of the same molecule?
Its value is “hardly exhibited sensitivity”.

What about the “sensitivity to the reagent” value (pYES2 transformant; [6]) of the same molecule?
Its value is “no sensitivity”.

What about the “sensitivity to the reagent” value (pYES2 transformant; [7]) of the same molecule?
Its value is “no sensitivity”.

What about the “sensitivity to the reagent” value [5] of the same molecule?
The value was “exhibited sensitivity”.

N#Cc1c[nH]cc1-c1cccc2c1OC(F)(F)O2 [Fludioxonil, fludioxonil] was tested. Which doubling time (ATCC201388 [pYES2-HIK1]) did it give?
Its doubling time is 4.25 ± 0.20 h.

What about the doubling time (ATCC201388 [pYES2-HIK1]; listed as fludioxonil) of the same molecule?
The doubling time was 4.25 h.

And the doubling time (ATCC201388 [pYES2])?
The doubling time was 2.25 ± 0.06 h.

And the doubling time (ATCC201388 [pYES2]; listed as fludioxonil)?
Its doubling time is “around 2.2 hours”.

What about the “concentration at which the effect was saturated” value (pYES2-HIK1 transformant) of the same molecule?
Its value is 5 ppm.

And the “growth inhibition in the presence of the reagent” value (pYES2-HIK1 transformant)?
The value was “exhibited growth inhibition”.

And the “sensitivity to the reagent” value [1]?
Its value is “hardly exhibited sensitivity”.

And the “sensitivity to the reagent” value [2]?
The value was “did not exhibit sensitivity”.

What about the “sensitivity to the reagent” value [3] of the same molecule?
Its value is “did not exhibit sensitivity”.

And the “sensitivity to the reagent” value [4]?
Its value is “hardly exhibited sensitivity”.

And the “sensitivity to the reagent” value (pYES2 transformant; [6])?
Its value is “no sensitivity”.

And the “sensitivity to the reagent” value (pYES2 transformant; [7])?
The value was “no sensitivity”.

What about the “sensitivity to the reagent” value [5] of the same molecule?
Its value is “exhibited sensitivity”.

What does the source list for CC(C)NC(=O)N1CC(=O)N(c2cc(Cl)cc(Cl)c2)C1=O [Iprodione, iprodione]?
doubling time (ATCC201388 [pYES2-HIK1]): 3.12 ± 0.10 h; doubling time (ATCC201388 [pYES2-HIK1]; listed as iprodione): 3.12 h; doubling time (ATCC201388 [pYES2]): 2.12 ± 0.06 h; doubling time (ATCC201388 [pYES2]; listed as iprodione): around 2.2 hours; concentration at which the effect was saturated (pYES2-HIK1 transformant): 25 ppm; growth inhibition in the presence of the reagent (pYES2-HIK1 transformant): exhibited growth inhibition; sensitivity to the reagent [1]: hardly exhibited sensitivity; sensitivity to the reagent [2]: did not exhibit sensitivity; sensitivity to the reagent [3]: did not exhibit sensitivity; sensitivity to the reagent [4]: hardly exhibited sensitivity; sensitivity to the reagent (pYES2 transformant; [6]): no sensitivity; sensitivity to the reagent (pYES2 transformant; [7]): no sensitivity; sensitivity to the reagent [5]: exhibited sensitivity

How did the “difference in sensitivity between the pYES2-HIK1 transformant and the pYES2 transformant” value (pYES2-HIK1 transformant; expression-inducing conditions, 0.25 ppm, cultured for 240 hours (FIG. 5B)) turn out when C[C@@H]1C[C@@H]([C@H](O)CC2CC(=O)NC(=O)C2)C(=O)[C@@H](C)C1 [cycloheximide] was run?
Its value is “No difference in sensitivity”.
